Source: patent US20060122152A1, “Heparin for the treatment of ocular pathologies” (priority 2004, published 2006)

Key:
[1] = system: corneal neovascularization; assay: Silver nitrate corneal burn in rat eyes: graded inhibition of neovascularization (Example 1); format: in vivo; conditions: single agents topically applied twice a day; doxycycline about 1 to about 20 mg/ml, LMWH about 10 mg/ml, triamcinolone about 4 mg/ml; compared to controls
Experimental: Artificial corneal burns were induced in rat eyes to determine the effects of doxycycline, steroids, and low molecular weight heparin, alone and in combinations, on corneal neovascularization.
The presence of new vessels (neovascularization) and the extent of new vessel formation was assessed by split lamp photography and histology. Inhibition of vessel proliferation was evaluated by measuring vessel progression from the outer cornea (corneal limbus) into the cornea. A numerical rating system was used to quantitate the degree of inhibition (+, ++, and +++ inhibition), with “+ inhibition” indicating inhibition one-third of the distance from the limbus of the cornea to the center; “++ inhibition” indicating inhibition two-thirds of the distance from the limbus to the center; “+++ inhibition” indicating complete inhibition of vessels between the limbus and the center; and the designation “± inhibition” indicating an intermediate degree of inhibition (e.g, less than +, ++, or +++).

[2] = system: corneal neovascularization; assay: Silver nitrate cauterization, two drug combinations, percentage area of corneal neovascularization (Example 3); format: in vivo, Long Evans rats; conditions: for effect on corneal neovascularization as individual agents (in words): flurbiprofen 0.03% w/v, LMWH 10 mg/ml, data not shown
Excerpt: Artificial corneal burns were induced in thirty-two eyes belonging to thirty-two Long Evans rats to determine the effects of doxycycline or another tetracycline derivative and low molecular weight heparin, doxycycline or another tetracycline derivative, and flurbiprofen, or flurbiprofen and low molecular weight heparin, on corneal neovascularization. All the eyes were examined to exclude any eyes with corneal scars and/or neovascularization prior to induction.
Neovascularization was induced in all eyes using silver nitrate cauterization. The animals were first anesthetized by intraperitoneal injection of a mixture of ketamine hydrochloride (25 mg/kg) with xylazine hydrochloride (5 mg/kg). The cornea was then anesthetized by a drop of 0.5% proparacaine and allowed to dry.
Group 1 (number of animals, n=8) received a 1:1 combination of 0.03% flurbiprofen sodium ophthalmic solution (Allergan, Irvine Calif.) and 10 mg/ml low molecular weight heparin (Enoxaparin, Aventis Pharmaceuticals Inc., Bridgewater N.J.); an actual concentration of 0.015% flurbiprofen with 5 mg/ml low molecular weight heparin. […] Group 3 (n=8) received a 1:1 combination of 20 mg/ml doxycycline and 10 mg/ml low molecular weight heparin; an actual concentration of 10 mg/ml doxycycline with 5 mg/ml low molecular weight heparin. Group 4 (n=8) received balanced salt solution (control). The drops were applied topically immediately after cauterization; treatments were administered two times per day for seven days.
The presence of new vessels (neovascularization) and the extent of new vessel formation was assessed by slit lamp photography and histology. Inhibition of vessel proliferation was evaluated by measuring vessel progression from the outer cornea (corneal limbus) into the cornea. As previously described, it will be appreciated that any reduction of new vessel proliferation and/or regression of existing vessels is therapeutic, and that complete inhibition and/or regression is not required, and also that reduction includes regression of existing vessels.
The extent of corneal neovascularization was determined by slit lamp microscopy with photography (SL-7E, Topcon, Tokyo Japan) on day seven after cauterization. The animals were euthanized in a carbon dioxide chamber under deep general anesthesia. […]
Corneal neovascularization was assessed by scanning (Cano scan 9900F, Canon, Tokyo Japan) the slit lamp photographs into high resolution digital images. […] The percentage area of the cornea covered by the corneal scar in each eye was also determined. […]
Statistical analysis was performed using Statistical Analysis System (SPSS 11.5) software. The difference between the groups was determined using Mann-Whitney U Analysis test; a p value less than 0.05 was considered significant.

[3] = system: corneal neovascularization; assay: Silver nitrate cauterization, single agents, percent area of neovascularization and scar (Example 4); format: in vivo, Long Evans pigmented rats; conditions: for NV area compared to the control group, statistical significance (in words): GLM with Tukey's studentized range test, p≦0.05; for Percent Area Of Neovascularization Mean +/− SD: day 7, topical two times daily for 7 days, LMWH 10 mg/ml, ascomycin 50 μg/ml, flurbiprofen 0.03%, doxycycline 20 mg/ml, triamcinolone acetonide 4 mg/ml, normal saline 74.9 +/− 9.2; for mean of percent area (neovascularization): day 7, same treatments, control group 74.9%±9.2%, FIG. 6; for neovascularization on slit lamp photograph (in words): seven days after induction of corneal burn, FIGS. 8A-8C

Compound	inhibition of neovascularization [1]	effect on corneal neovascularization as individual agent (in words) ([2]; doxycycline at 10 mg/ml)	effect on corneal neovascularization as individual agent (in words) ([2]; doxycycline at 20 mg/ml, p<0.05%)	NV area compared to the control group, statistical significance (in words) [3]	Percent Area Of Neovascularization Mean +/− SD [3]	mean of percent area (neovascularization) [3]	neovascularization on slit lamp photograph (in words) [3]	effect on corneal neovascularization as individual agents (in words) [2]	histopathology of corneal stroma (in words) ([3]; H&E 100X, FIG. 9B)
CC1c2cccc(O)c2C(=O)C2=C(O)C3(O)C(=O)C(C(N)=O)=C(O)C(N(C)C)C3C(O)C21.O (stereo not shown) [doxycycline, 4-(dimethylamino)-1,4,4a,5,5a,6,11,12a-octahydro3,5,10,12,12a-pentahydroxy-6-methyl-1,11-dioxo-2-naphthacenecarboxamide monohydrate]	+	not	did significantly inhibit	significant reduction	35.5 +/− 29.1%	35.5%±29.1%	neovascularization is less prominent than in control group		
CC[C@@H]1/C=C(\C)C[C@H](C)C[C@H](OC)[C@H]2O[C@@](O)(C(=O)C(=O)N3CCCC[C@H]3C(=O)O[C@H](/C(C)=C/[C@@H]3CC[C@@H](O)[C@H](OC)C3)[C@H](C)[C@@H](O)CC1=O)[C@H](C)C[C@@H]2OC [ascomycin]				no statistically significant differences		56.0%±22.4%			
low molecular weight heparin	+			no statistically significant differences	66.7 +/− 9.9%	66.7%±9.9%		did not significantly decrease	
CC(C(=O)[O-])c1ccc(-c2ccccc2)c(F)c1.O.O.[Na+] (racemic) [flurbiprofen, sodium (±)-2-(2-fluoro-4-biphenylyl)-propionate dihydrate]				no statistically significant differences	50.6 +/− 18.7%	50.5%±18.7%	neovascularization is quite prominent	did not significantly decrease	
CC1(C)O[C@@H]2C[C@H]3[C@@H]4CCC5=CC(=O)C=C[C@]5(C)[C@@]4(F)[C@@H](O)C[C@]3(C)[C@]2(C(=O)CO)O1 [triamcinolone, 9α-fluoro-11 13,16a,17,21 tetra hydroxy-pregna-1,4diene-3,20-dione cyclic 16,17-acetal with acetone]	++			significant reduction	13.3 +/− 7.2%	13.3%±7.1%	relatively small neovascular area		avascular stroma
